From patent US11072612B2, “NLRP3 modulators” (INNATE TUMOR IMMUNITY, INC., priority 2016, dated 2021)

How the values were obtained:
Format in all cases: cell-based
hNLRP3 = molecular target: T1, hNLRP3 (Homo sapiens, UniProt Q96P20); test: hNLRP3 agonist assay: IL-1β production in PMA-differentiated THP-1 cells (ELISA); conditions: Table 2, 4 hours, IL-1β by ELISA
T1 construct: THP-1 cells were purchased from the American Type Culture Collection; host or cells: THP-1 cells, PMA-differentiated

TLR7 = molecular target: T2, TLR7 (Homo sapiens, UniProt Q9NYK1); test: TLR7 EC50 assay; conditions: Table 2
T2 sequence (Q9NYK1 27-1049): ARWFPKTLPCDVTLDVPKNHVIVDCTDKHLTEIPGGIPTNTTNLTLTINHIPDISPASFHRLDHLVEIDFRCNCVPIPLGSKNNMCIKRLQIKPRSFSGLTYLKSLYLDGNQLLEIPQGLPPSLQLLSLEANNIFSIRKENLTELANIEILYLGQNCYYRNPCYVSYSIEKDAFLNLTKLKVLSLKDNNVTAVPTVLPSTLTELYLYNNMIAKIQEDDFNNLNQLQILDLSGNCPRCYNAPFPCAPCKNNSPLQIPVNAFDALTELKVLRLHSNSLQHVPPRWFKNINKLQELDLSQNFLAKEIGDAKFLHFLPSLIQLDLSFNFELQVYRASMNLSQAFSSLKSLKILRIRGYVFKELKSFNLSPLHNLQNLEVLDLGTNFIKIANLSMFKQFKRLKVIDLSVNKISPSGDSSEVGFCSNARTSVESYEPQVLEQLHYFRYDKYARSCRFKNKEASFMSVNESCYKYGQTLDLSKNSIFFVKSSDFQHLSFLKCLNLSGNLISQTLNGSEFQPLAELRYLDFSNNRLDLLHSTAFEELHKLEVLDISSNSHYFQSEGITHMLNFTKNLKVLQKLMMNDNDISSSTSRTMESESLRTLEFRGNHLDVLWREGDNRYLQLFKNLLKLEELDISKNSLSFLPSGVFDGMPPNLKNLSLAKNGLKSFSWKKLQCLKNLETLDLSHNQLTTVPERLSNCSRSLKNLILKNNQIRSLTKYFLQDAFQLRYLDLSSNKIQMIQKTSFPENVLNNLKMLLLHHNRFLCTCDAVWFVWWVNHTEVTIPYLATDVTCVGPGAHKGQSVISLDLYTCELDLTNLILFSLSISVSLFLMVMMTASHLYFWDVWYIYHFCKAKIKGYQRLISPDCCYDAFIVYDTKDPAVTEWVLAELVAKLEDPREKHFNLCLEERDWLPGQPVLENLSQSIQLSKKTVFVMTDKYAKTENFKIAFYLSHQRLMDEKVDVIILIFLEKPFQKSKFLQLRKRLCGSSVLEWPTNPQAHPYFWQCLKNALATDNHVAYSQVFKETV

TLR8 = molecular target: T3, TLR8 (Homo sapiens, UniProt Q9NR97); test: TLR8 EC50 assay; conditions: Table 2
T3 sequence (Q9NR97 27-1041): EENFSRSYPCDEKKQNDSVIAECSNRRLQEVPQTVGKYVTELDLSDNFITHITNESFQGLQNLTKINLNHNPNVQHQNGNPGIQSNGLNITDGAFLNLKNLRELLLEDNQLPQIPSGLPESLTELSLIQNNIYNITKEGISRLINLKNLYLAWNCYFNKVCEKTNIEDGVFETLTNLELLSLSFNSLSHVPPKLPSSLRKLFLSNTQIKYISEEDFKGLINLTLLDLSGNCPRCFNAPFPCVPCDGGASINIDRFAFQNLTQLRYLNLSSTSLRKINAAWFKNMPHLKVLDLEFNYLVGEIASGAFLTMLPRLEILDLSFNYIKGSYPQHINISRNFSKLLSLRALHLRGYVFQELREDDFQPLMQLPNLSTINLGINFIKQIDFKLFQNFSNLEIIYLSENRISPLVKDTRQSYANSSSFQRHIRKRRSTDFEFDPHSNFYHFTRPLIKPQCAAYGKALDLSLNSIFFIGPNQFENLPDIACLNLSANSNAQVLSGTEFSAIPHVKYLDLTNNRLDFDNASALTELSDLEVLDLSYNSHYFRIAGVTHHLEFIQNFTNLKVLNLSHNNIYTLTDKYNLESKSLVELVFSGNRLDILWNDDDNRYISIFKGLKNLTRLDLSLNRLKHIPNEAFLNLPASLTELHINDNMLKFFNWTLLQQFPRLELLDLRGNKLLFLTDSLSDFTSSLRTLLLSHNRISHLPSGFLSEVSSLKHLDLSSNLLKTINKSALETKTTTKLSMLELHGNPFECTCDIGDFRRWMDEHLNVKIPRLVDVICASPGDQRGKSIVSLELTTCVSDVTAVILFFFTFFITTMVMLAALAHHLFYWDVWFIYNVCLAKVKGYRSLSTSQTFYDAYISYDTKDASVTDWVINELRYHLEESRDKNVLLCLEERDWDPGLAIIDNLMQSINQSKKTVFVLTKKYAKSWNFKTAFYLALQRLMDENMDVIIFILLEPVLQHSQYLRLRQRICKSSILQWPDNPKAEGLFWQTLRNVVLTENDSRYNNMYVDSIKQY

T1 sequence (Q96P20 whole entry): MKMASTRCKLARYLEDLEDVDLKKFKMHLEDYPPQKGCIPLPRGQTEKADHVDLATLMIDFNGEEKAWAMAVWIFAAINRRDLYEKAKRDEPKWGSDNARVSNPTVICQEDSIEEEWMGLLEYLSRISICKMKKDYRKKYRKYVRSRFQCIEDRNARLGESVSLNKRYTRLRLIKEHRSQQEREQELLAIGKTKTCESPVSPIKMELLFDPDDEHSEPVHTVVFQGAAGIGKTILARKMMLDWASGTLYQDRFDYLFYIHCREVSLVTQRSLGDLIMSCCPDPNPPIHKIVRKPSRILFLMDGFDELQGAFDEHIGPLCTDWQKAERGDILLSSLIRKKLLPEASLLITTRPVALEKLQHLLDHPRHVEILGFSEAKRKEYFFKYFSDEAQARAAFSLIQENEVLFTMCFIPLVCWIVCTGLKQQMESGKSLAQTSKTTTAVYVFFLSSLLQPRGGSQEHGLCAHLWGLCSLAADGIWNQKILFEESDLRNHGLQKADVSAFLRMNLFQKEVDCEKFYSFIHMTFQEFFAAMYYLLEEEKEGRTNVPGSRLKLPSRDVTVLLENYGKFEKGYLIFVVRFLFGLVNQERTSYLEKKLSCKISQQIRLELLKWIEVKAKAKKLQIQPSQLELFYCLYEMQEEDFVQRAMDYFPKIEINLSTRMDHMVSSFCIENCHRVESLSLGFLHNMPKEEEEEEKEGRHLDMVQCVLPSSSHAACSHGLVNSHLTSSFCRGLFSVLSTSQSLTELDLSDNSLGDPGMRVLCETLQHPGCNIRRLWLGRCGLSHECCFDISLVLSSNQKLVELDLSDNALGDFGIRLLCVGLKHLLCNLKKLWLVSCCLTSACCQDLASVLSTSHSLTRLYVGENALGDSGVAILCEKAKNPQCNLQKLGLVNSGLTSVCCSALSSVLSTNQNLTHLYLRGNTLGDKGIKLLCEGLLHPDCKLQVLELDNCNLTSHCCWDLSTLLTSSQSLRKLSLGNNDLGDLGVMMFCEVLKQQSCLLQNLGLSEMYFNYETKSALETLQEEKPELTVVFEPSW

Row | Compound | EC50 (hNLRP3) | EC50 (TLR7) | EC50 (TLR8)
1 | Nc1nc2ccccc2c2[nH]c(C3CCNCC3)nc12 [Compound 224] | 20 to 100 µM | > 100 µM | > 100 µM
2 | CC(=O)N1CCC(c2nc3c(N)nc4cc(Br)ccc4c3[nH]2)CC1 [Compound 226] | 20 to 100 µM | > 100 µM | > 100 µM
3 | CC(=O)NCCCn1c(C2CCN(C(=O)c3ccccc3)CC2)nc2c(N)nc3cc(Br)ccc3c21 [Compound 227] | 20 to 100 µM | > 100 µM | > 100 µM
4 | CN1CCC(c2nc3c(N)nc4ccccc4c3[nH]2)CC1 [Compound 228] | 20 to 100 µM | > 100 µM | > 100 µM
5 | COc1cccc(-c2ccc3c(c2)nc(N)c2nc(CCCO)[nH]c23)n1 [Compound 246] | 1 to 20 µM | > 100 µM | > 100 µM
6 | COc1cccc(-c2ccc3c(c2)nc(N)c2nc(CCCOCc4ccccc4)[nH]c23)n1 [Compound 247] | 1 to 20 µM | > 100 µM | > 100 µM
7 | Nc1nc2cc(-c3ccc[nH]c3=O)ccc2c2[nH]c(CCCOCc3ccccc3)nc12 [Compound 249] | 1 to 20 µM | > 100 µM | > 100 µM
8 | CCNC(C)(C)c1nc2c(N)nc3cc(-c4cc[nH]n4)ccc3c2[nH]1 [Compound 251] | 1 to 20 µM | > 100 µM | > 100 µM
9 | CCN(C(=O)OC(C)(C)C)C(C)(C)c1nc2c(N)nc3cc(-c4cc[nH]n4)ccc3c2n1Cc1ccc(OC)cc1 [Compound 252] | 1 to 20 µM | > 100 µM | > 100 µM
10 | CCN(C(C)=O)C(C)(C)c1nc2c(N)nc3cc(-c4cc[nH]n4)ccc3c2[nH]1 [Compound 253] | 1 to 20 µM | > 100 µM | > 100 µM

More lines, now with the values ahead:

Row | EC50 (hNLRP3) | EC50 (TLR7) | EC50 (TLR8) | Compound
11 | ≤ 1 µM | > 100 µM | > 100 µM | CC(C)(C)OC(=O)N1CCC(c2nc3c(N)nc4cc(-c5ccccc5)ccc4c3[nH]2)CC1 [Compound 219]
12 | 1 to 20 µM | > 100 µM | > 100 µM | Nc1nc2cc(Br)ccc2c2[nH]c(C3CCN(S(=O)(=O)c4ccccc4)CC3)nc12 [Compound 220]
13 | 1 to 20 µM | > 100 µM | > 100 µM | CC(C)(C)OC(=O)N1CCC(c2nc3c(N)nc4cc(-c5cccnc5)ccc4c3[nH]2)CC1 [Compound 221]
14 | 1 to 20 µM | > 100 µM | > 100 µM | Nc1nc2cc(-c3ccccc3)ccc2c2[nH]c(C3CCNCC3)nc12 [Compound 222]
15 | 1 to 20 µM | > 100 µM | > 100 µM | CC(C)(C)OC(=O)N1CCC(c2nc3c(N)nc4cc(Br)ccc4c3[nH]2)CC1 [Compound 225]
16 | 1 to 20 µM | > 100 µM | > 100 µM | Nc1nc2cc(-c3cc[nH]n3)ccc2c2[nH]c(CN3CC4COCC4C3)nc12 (stereo not drawn) [Compound 232]
17 | ≤ 1 µM | > 100 µM | > 100 µM | Nc1nc2cc(-c3cc[nH]n3)ccc2c2[nH]c(CN3CCCC3)nc12 [Compound 233]
18 | 1 to 20 µM | > 100 µM | > 100 µM | Nc1nc2cc(-c3ccc[nH]c3=O)ccc2c2[nH]c(CCCO)nc12 [Compound 238]
19 | 1 to 20 µM | > 100 µM | > 100 µM | Nc1nc2cc(-c3cccc(=O)[nH]3)ccc2c2[nH]c(CCCO)nc12 [Compound 239]
20 | 1 to 20 µM | > 100 µM | > 100 µM | CCNC(C)c1nc2c(N)nc3cc(-c4cc[nH]n4)ccc3c2[nH]1 (stereo not drawn) [Compound 240]
21 | 1 to 20 µM | > 100 µM | > 100 µM | CCN(C(C)=O)C(C)c1nc2c(N)nc3cc(-c4cc[nH]n4)ccc3c2[nH]1 (stereo not drawn) [Compound 241]
22 | 1 to 20 µM | > 100 µM | > 100 µM | CCN(C(=O)OC(C)(C)C)C(C)c1nc2c(N)nc3cc(-c4cc[nH]n4)ccc3c2n1Cc1ccc(OC)cc1 (stereo not drawn) [Compound 242]
